According to patent US20230056135A1, “MONOMER AND MULTIMERIC ANTI-HBV AGENTS” (priority 2018, published 2023):
Read-outs that look alike come from different tables or passages of the source.

Tests used:
Assay type in all cases: cell-based
[1] = test system: HBV replication in HepAD38 cells; assay: Drug-drug combination, inhibition of HBV replication in HepAD38 cells; conditions: HepAD38 cells, combinations at ratio 1:1
[2] = test system: human PBM; assay: Cellular toxicity assay in human PBM cells
Experimental: (§1) The toxicity of the compounds was assessed in Vero, human PBM, CEM (human lymphoblastoid), MT-2, and HepG2 cells, as described previously (see Schinazi R. F., Sommadossi J.-P., Saalmann V., Cannon D. L., Xie M.-Y., Hart G. C., Smith G. A. & Hahn E. F. Antimicrob. Agents Chemother. 1990, 34, 1061-67). Cycloheximide was included as positive cytotoxic control, and untreated cells exposed to solvent were included as negative controls. The cytotoxicity IC50 was obtained from the concentration-response curve using the median effective method described previously (see Chou T.-C. & Talalay P. Adv. Enzyme Regul. 1984, 22, 27-55; Belen'kii M. S. & Schinazi R. F. Antiviral Res. 1994, 25, 1-11).

[3] = test system: Vero; assay: Cellular toxicity assay in Vero cells
Experimental: as §1

[4] = test system: HepG2 cells; assay: Cellular toxicity assay in HepG2 cells
Experimental: as §1

[5] = test system: CEM (human lymphoblastoid); assay: Cellular toxicity assay in CEM cells
Experimental: as §1

[6] = test system: wild type HBV; assay: Anti-HBV assay in AD-38 cell line (HBV in culture supernatant); conditions: AD-38 cell line, Tet (-); for EC50: read-out: Anti-HBV activity EC50; for EC90: read-out: Anti-HBV activity EC90
Experimental: The anti-HBV activity of the compounds was determined by treating the AD-38 cell line carrying wild type HBV under the control of tetracycline (see Ladner S. K., Otto M. J., Barker C. S., Zaifert K., Wang G. H., Guo J. T., Seeger C. & King R. W. Antimicrob. Agents Chemother. 1997, 41, 1715-20). Removal of tetracycline from the medium [Tet (−)] results in the production of HBV. The levels of HBV in the culture supernatant fluids from cells treated with the compounds were compared with that of the untreated controls. Control cultures with tetracycline [Tet (+)] were also maintained to determine the basal levels of HBV expression. 3TC was included as positive control.
The median effective concentrations (EC50) ranges of several of the compounds described herein against HBV are shown in Table 3: […]

[7] = test system: Glutathione levels (GSH); assay: Glutathione levels in Huh7 cells (GSH-Glo Glutathione Assay)
Experimental: Glutathione levels (GSH) were measured in Huh7 cells after 22 h treatment with 10 μM CAMs (GSH-Glo™ Glutathione Assay—Promega). Treatment of Huh7 with 10 μM positive control, L-buthionine-sulfoximine, reduced cellular GSH levels by 58% (data not shown); Samples were tested in triplicates.

[8] = Cellular toxicity assay in human PBM cells; conditions: human, human PBM cells; read-out: Cytotoxicity; CC50 (μM) PBM
Experimental: as §1

[9] = Cellular toxicity assay in HepG2 cells; conditions: human, HepG2 cells; read-out: Cytotoxicity; CC50 (μM) HepG2
Experimental: as §1

[10] = human PBM cells, read-out: Cytotoxicity, CC50 (μM) PBM
[11] = Vero cells, read-out: Cytotoxicity, CC50 (μM) VERO
[12] = HepG2 cells, read-out: Cytotoxicity, CC50 (μM) HepG2
[13] = CEM cells, read-out: Cytotoxicity, CC50 (μM) CEM

## Cc1c(C(=O)C(=O)NCc2cn(CCCCCCCCCCCCn3cc(CNC(=O)C(=O)c4c(C)c(C(=O)Nc5ccc(F)c(F)c5)n(C)c4C)nn3)nn2)c(C)n(C)c1C(=O)Nc1ccc(F)c(F)c1 [Compound 53, 4,4′-(2,2′-(((Dodecane-1,12-diylbis(1H-1,2,3-triazole-1,4-diyl))bis(methylene))bis(azanediyl))bis(2-oxoacetyl))bis(N-(3,4-difluorophenyl)-1,3,5-trimethyl-1H-pyrrole-2-carboxamide)]
[1]; read-out: EC50
  EC50: 20 pM
[1]; read-out: EC90
  EC90: 0.00529 µM
[2]; [10]
  CC50: 35 µM
[3]; [11]
  CC50: > 100 µM
[4]; [12]
  CC50: > 100 µM
[5]; [13]
  CC50: 45 µM
[6]
  EC50: 0.0001 to 0.001 µM
  EC90: 0.01 to 0.1 µM

## O=C(NC(Br)=C(C(=O)N1CCCCC1)c1ccccc1OCCCCCCCCCCCCOc1ccccc1C(C(=O)N1CCCCC1)=C(Br)NC(=O)c1ccc([N+](=O)[O-])cc1)c1ccc([N+](=O)[O-])cc1 [Compound 28]
[2]
  CC50: > 100 µM
[3]
  CC50: > 100 µM
[4]
  CC50: > 100 µM
[5]
  CC50: > 100 µM
[6]
  EC50: 1 to 10 µM

## CCCCS(=N)(=O)CCC(N)C(=O)O [L-buthionine-sulfoximine, reference compound]
[7]; 10 μM positive control
  reduction of cellular GSH levels: 58%

## C#CCn1c(C)c(C(=O)C(=O)NC(C#C)(CC)CC)c(C)c1C(=O)Nc1ccc(F)c(F)c1 [Compound 115, N-(3,4-Difluorophenyl)-4-(2-((3-ethylpent-1-yn-3-yl)amino)-2-oxoacetyl)-3,5-dimethyl-1-(prop-2-yn-1-yl)-1H-pyrrole-2-carboxamide]
[8]
  CC50: 45 µM
[9]
  CC50: 35 µM
[7]; 22 h treatment
  GSH levels relative to untreated control: > 10 µM
[7]; Homo sapiens, Huh-7, read-out: GSH levels relative to untreated control (% inhibition at 10 μM), 22 h, 10 μM
  inhibition at 10 µM: < 1%
[6]; Hepatitis B virus
  EC50: 0.0001 to 0.001 µM

## Cc1c(C(=O)C(=O)NCc2cn(CCCCCCCCn3cc(CNC(=O)C(=O)c4c(C)c(C(=O)Nc5ccc(F)c(F)c5)n(C)c4C)nn3)nn2)c(C)n(C)c1C(=O)Nc1ccc(F)c(F)c1 [Compound 9, 4,4′-(2,2′-(((Octane-1,8-diylbis(1H-1,2,3-triazole-1,4-diyl))bis(methylene))bis(azanediyl))bis(2-oxoacetyl))bis(N-(3,4-difluorophenyl)-1,3,5-trimethyl-1H-pyrrole-2-carboxamide)]
[2]; [10]
  CC50: 26.4 µM
[3]; [11]
  CC50: > 100 µM
[4]; [12]
  CC50: > 100 µM
[5]; [13]
  CC50: > 100 µM
[6]
  EC50: 0.1 to 1 µM
  EC90: 1 to 10 µM

## 4,4′-(2,2′-(((Tetradecane-1,14-diylbis(1H-1,2,3-triazole-1,4-diyl))bis(methylene)) bis(azanediyl)) bis(2-oxoacetyl))bis(N-(3,4-difluorophenyl)-1,3,5-trimethyl-1H-pyrrole-2-carboxamide) [Compound 80]
[2]; [10]
  CC50: > 100 µM
[4]; [12]
  CC50: > 100 µM
[6]
  EC50: 0.001 to 0.01 µM

## CCOC(=O)C1=C(CNCc2cn(CCCCCCCCn3cc(CNC(=O)C(=O)c4c(C)c(C(=O)Nc5ccc(F)c(F)c5)n(C)c4C)nn3)nn2)NC(c2nccs2)=NC1c1ccc(F)cc1Br (stereo not shown) [Compound 20, Ethyl 4-(2-bromo-4-fluorophenyl)-6-((((1-(8-(4-((2-(5-((3,4-difluorophenyl)-carbamoyl)-1,2,4-trimethyl-1H-pyrrol-3-yl)-2-oxoacelamido)methyl)-1H-1,2,3-triazol-1-yl)octyl)-1H-1,2,3-triazol-4-yl)methyl)amino)methyl)-2-(thiazol-2-yl)-1,4-dihydropyrimidine-5-carboxylate]
[2]
  CC50: 33 µM
[3]
  CC50: > 100 µM
[4]
  CC50: > 100 µM
[5]
  CC50: > 100 µM
[6]
  EC50: 0.01 to 0.1 µM
  EC90: 1 to 10 µM
